According to patent US10195204B2, “Methods of treating hemoglobinopathies” (DUKE UNIVERSITY, priority 2011, dated 2019):
Entries after “also recorded” stand apart in the source; their conditions may differ.

Key:
[1] = test system: ERK1/2; details: ERK1/2 from epinephrine-treated SS RBCs, n=4
Protocol: Treated packed SS RBCs were lysed for 20 min at 4° C. with lysis buffer (10 mM EDTA, 20 mM Tris, 110 mM NaCl, pH 7.5) containing 2 mM PMSF, 1% Triton X-100, phosphatase inhibitor cocktail (Sigma) and protease inhibitor cocktail (Sigma). ERK1/2 was immunoprecipitated with anti-ERK1/2 antibody at 4° C., and immune complexes were obtained using protein A-agarose (Amersham Biosciences Corp., Piscataway, N.J.). ERK1/2 immunocomplex was examined for ERK1/2 activity using myelin basic protein (MBP) at 2 mg/ml (Millipore) as a substrate and ATP as a phosphate donor with equal protein amounts per assay condition. For the negative control, an equal volume of water was substituted for ERK1/2 substrate. […] The reaction mixture was incubated for 20 min at 30° C., followed by protein separation and immunoblotting using anti-phosphoMBP mAb (Millipore).

[2] = test system: SS RBC adhesion to TNF-α-activated HUVECs; assay: Flow chamber adhesion of SS RBCs to TNF-α-activated HUVECs; assay type: cell-based, human
Protocol: Cells were then washed three times with 5 ml PBS with Ca^2+ and Mg^2+. Prior to adhesion assays, washed treated SS RBCs were labeled with PKH 26 red fluorescent cell linker kit (Sigma-Aldrich, St. Louis, Mo.), following the manufacturer's instructions.
Graduated height flow chambers were used to quantify adhesion of RBCs to HUVECs substantially as previously described in detail.^4, 20 In some adhesion studies, slides coated with HUVECs were treated with human recombinant TNF-α at 10 ng/ml for 4 hours. Slides coated with HUVECs treated or not with TNF-α were then washed three times with 20 ml HBSS with 1.26 mM Ca^2+, 0.9 mM Mg^2+ (Gibco, Grand Island, N.Y.) warmed previously to 37° C. and then fit into a variable height flow chamber. The flow chamber was mounted on the stage of an inverted phase contrast microscope (Diaphot, Nikon Inc., Melville, N.Y.) connected to a thermoplate (Tokai Hit Co., Ltd., Japan) set at 37° C. Cells were observed using a video camera (RS photometrics,) attached to the microscope and connected to a Macintosh G4 computer. RBC (3 ml) suspended at 0.2% (vol/vol) in HBSS with Ca^2+, Mg^2+ were infused into the flow chamber and allowed to adhere to the slide for 10 min without flow. Before exposure to flow, a minimum of three fields at each of seven different locations along a line oriented normal to future flow were examined for the total number of fluorescent cells. Fluid flow (HBSS with Ca^2+, Mg^2+) was then started using a calibrated syringe pump. After exposure to flow, the fields were again examined and the number of adherent cells counted. The fraction of adherent cells was presented as (number of cells attached after exposure to flow)/(cells present per field before flow). The wall shear stress was calculated as:
[formula] τw=wall shear stress (dyne/cm^2); Q=volumetric flow rate (cm^3/s); μ is media viscosity, w is the width of the flow channel, and H(x) is the height of the flow chamber as a function of position along the microscope slide. Several investigators have shown that blood flow in small vessels may be continuous, with shear stresses of 1-2 dynes/cm^2, or flow may be intermittent. Our data were obtained using both intermittent and continuous flow conditions.

CNC[C@H](O)c1ccc(O)c(O)c1 [epinephrine]
MBP phosphorylation by immunoprecipitated ERK1/2, increase vs sham-treated cells [1]: 2.1±0.3 fold

N#CC(=C(/N)Sc1ccccc1N)/C(C#N)=C(\N)Sc1ccccc1N [U0126]
SS RBCs adherent to TNF-α-activated HUVECs ([2]; SS RBCs pre-treated with 10 μM U0126): 18±5% | effect on SS RBC adhesion to TNF-α-activated HUVECs ([2]; SS RBCs treated with MEK inhibitor (10 μM; RDEA119 1 and 10 μM)): significantly reduced; also recorded: significantly inhibited
